As usually defined, the IC50 is the concentration that inhibits the measured activity by half. The low end stands for inhibition by little substance, the high end for a need for much substance.

The first test relates to cells which regularly divide in culture (e.g. cancer cells). The experiment in a line: cell based antimitotic (mitotic arrest) assay using antibodies specific for mitotic cells. The conditions noted are these: cell based mitotic assay. The source says: Methods suitable for assaying antimitotic activity of compounds of this invention or compounds used as precursors, may be based on the use of antibodies specific for mitotic cells, such as those described in the international patent application published Apr. 1, 1999 under WO 99/15157 or the assay described in WO 01/38339. Such an assay will typically employ cells which regularly divide in culture (e.g. cancer cells). A known antimitotic compound such as nocodazole may be used as a control. In the assay, determination of the cells which proceed to mitosis is carried out using any of the known immunological methods by employing antibodies which have specificity for mitotic cells. […] Other examples are the monoclonal antibodies recognizing phospho-epitopes in the paired helical filament proteins (PHF) found in brain tissue of patients suffering from Alzheiner's disease as described in: PCT International Application published Jul. 4, 1996 under No. WO 96/20218; and, Vincent et al. (1996) “The Journal of Cell Biology”, 132:413–425. TG-3 antibody described in the latter two references may be obtained from Albert Einstein College of Medicine of Yeshiva University, Bronx, N.Y. This antibody is highly specific for mitotic cells and functions in ELISA.
Immunological methods useful for determination of mitotic cells in an assay include any method for determining antibody-antigen binding, including: immunocytochemistry (e.g. immunofluorescence), flow cytometry, immunoblotting, and ELISA, including those described in Vincent, I. et al. [supra]. High throughput testing of samples may be readily achieved by use of the ELISA or the ELICA assays described in WO 01/38339.
`CO[C@]12CC[C@](C)(O1)[C@@H](OC(=O)CCc1cn(C)cn1)C[C@@H]1[C@H](/C=C\2COC2OCC(O)C(O)C2OC(C)=O)[C@@H](C(C)C)CC[C@@H]1C` (stereo partly drawn) [Compound 8, hexahydroeleutherobin] yielded an IC50 above 10000 nM.

“5,6,11β,12-tetrahydro eleutherobin [Compound 9]” displayed an IC50 of 200 nM.

2′3′-dihdro-eleutherobin [Compound 10] returned an IC50 of 20000 nM.

The molecule `CO[C@]12C=C[C@](C)(O1)[C@@H](OC(=O)/C=C/c1cn(C)cn1)C[C@H]1C(C)=CC[C@H](C(C)C)[C@H]1/C=C\2COC1OCC(O)C(O)C1OC(C)=O` (stereo partly drawn) [eleutherobin, reference compound] yielded an IC50 of 20 nM. Compared with the last molecule, the IC50 is about 1000-fold lower.

Molecule `CCO[C@]12C=C[C@](C)(O1)[C@@H](OC(=O)/C=C/c1cn(C)cn1)C[C@H]1C(CO)=CC[C@H](C(C)C)[C@H]1/C=C\2COC1OCC(O)C(O)C1OC(C)=O` (stereo partly drawn) [Compound 7, 17-hydroxyeleutheside] gave an IC50 of 20 nM.

Staying with this test, now noted: compared with eleutherobin.
Regarding `CO[C@]12CC[C@](C)(O1)[C@@H](OC(=O)CCc1cn(C)cn1)C[C@@H]1[C@H](/C=C\2COC2OCC(O)C(O)C2OC(C)=O)[C@@H](C(C)C)CC[C@@H]1C` (stereo partly drawn) [Compound 8, hexahydroeleutherobin], the “antimitotic activity relative to eleutherobin (fold less active)” value is listed as “more than five thousand fold less active than eleutherobin”.

(Values after patent US7067494B2, “Antimitotic eleuthesides” (The University of British Columbia, priority 2001, dated 2006).)
